This is an account of results in patent US12662473B2, “Inhibitors for programmed cell necrosis and preparation method therefor and use thereof” (SHANGHAI INSTITUTE OF ORGANIC CHEMISTRY, CHINESE ACADEMY OF …, priority 2019, dated 2026).

One experiment deals with L929 cells. Put plainly: TNF-induced programmed cell necrosis inhibition, Cell Titer-Glo viability. The format is cell-based, mouse. The settings on record: Mus musculus, read-out: EC50 inhibitory activity on programmed cell necrosis. The method, boiled down: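 EC50 values come from CellTiter-Glo luminescence (cellular ATP), normalised to unstimulated DMSO wells as 100% viability. Mouse L929 fibroblasts had 1 h compound-plus-Smac pretreatment at 37 °C (Smac added as 500 nM solution), followed by 14 h TNFα challenge (added as 500 ng/mL solution).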

For another experiment, the system named is FADD−/− Jurkat cells. The description is as above. The format is cell-based. The settings on record: Homo sapiens, Jurkat. The method, boiled down:
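FADD-deficient Jurkat cells (2.5×10^5/mL) were pretreated 1 h at 37 °C with compound plus Smac (50 nM as added), then stimulated with TNFα (50 ng/mL as added) for 14 h at 37 °C, 5% CO2. Viability was measured as ATP by CellTiter-Glo luminescence, with unstimulated DMSO wells as 100%. EC50 values were derived.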

Where [1] appears, read: 14 h, TNFa + SM164, read-out: EC50 inhibitory activity on programmed cell necrosis.
Where [2] appears, read: TNFa, read-out: EC50 inhibitory activity on programmed cell necrosis.
Where [3] appears, read: L929, 14 h, L929 cells (mouse), TNFa + SM164.

Where two headings read alike, the source gives them in different places. A value given as a limit tells only on which side of the number the result lay.

As a reminder, the EC50 is the concentration needed to bring the measured effect to its halfway point. As for `COc1cc(Cl)ccc1OC(C)(C)C(=O)N1CCCC1c1ccc(Cl)cc1` (stereo not shown) [QY-9-43], the concentration for a half-maximal effect (EC50) was 21 nM in the experiment on L929 cells (L929, L929 cells (mouse), TNFa); 1150 nM in the experiment on FADD−/− Jurkat cells (setting [1]); 0.16 nM with FADD−/− Jurkat cells (setting [2]).
As for `COc1cc(Cl)ccc1OC(C)(C)C(=O)N1CCC[C@H]1c1ccc(Cl)cc1` [QY-10-1], the concentration for a half-maximal effect (EC50) in the experiment with L929 cells (setting [3]) is 3.6 nM; in the experiment with L929 cells (L929, L929 cells (mouse), TNFa) it was 0.79 nM; in the experiment with FADD−/− Jurkat cells (setting [1]), more than 10000 nM; with FADD−/− Jurkat cells (setting [2]) it was more than 10000 nM.
As for `CC(=O)Nc1cc(Cl)ccc1OC(C)(C)C(=O)N1CCCC1c1ccc(Cl)cc1` (stereo not shown) [QY-10-92], the EC50 is more than 10000 nM in the experiment on L929 cells (setting [3]); more than 10000 nM in the experiment on L929 cells (L929, L929 cells (mouse), TNFa); more than 10000 nM in the experiment on FADD−/− Jurkat cells (setting [1]); more than 10000 nM in the experiment with FADD−/− Jurkat cells (setting [2]).
`COc1cc(Cl)ccc1OC(C)(C)C(=O)N1N=CCC1c1ccc(C)cc1` (stereo not shown) [QY-10-96]: the EC50 with L929 cells (setting [3]) was 6.31 nM; with L929 cells (L929, L929 cells (mouse), TNFa) it was 0.151 nM; in the experiment on FADD−/− Jurkat cells (setting [1]), 633 nM; in the experiment on FADD−/− Jurkat cells (setting [2]), 13.4 nM.
As to `COc1cc(Cl)ccc1NC(C)(C)C(=O)N1CCCC1c1ccc(Cl)cc1` (stereo not shown) [QY-10-104], the EC50 in the experiment on L929 cells (setting [3]) is 66.2 nM; in the experiment on L929 cells (L929, L929 cells (mouse), TNFa), 13.6 nM; in the experiment on FADD−/− Jurkat cells (setting [1]), 794 nM; in the experiment with FADD−/− Jurkat cells (setting [2]) it was 106 nM.
Take `[2H]c1c([2H])c([C@]2([2H])CCCN2C(=O)C(C)(C)Oc2ccc(Cl)cc2OC)c([2H])c([2H])c1C([2H])([2H])[2H]` [QY-11-1]: the concentration giving a half-maximal response (EC50) was found to be 2.66 nM with L929 cells (setting [3]); 0.0803 nM in the experiment on L929 cells (L929, L929 cells (mouse), TNFa); 4.05 nM in the experiment on FADD−/− Jurkat cells (setting [2]).
Turning to `CC(C)(C(=O)N1CCCC1c1ccc(Cl)cc1)C1N=Nc2ccc(Cl)cc21` (stereo not shown) [QY-11-9A], the EC50 with L929 cells (setting [3]) is more than 10000 nM; with L929 cells (L929, L929 cells (mouse), TNFa), 2530 nM; with FADD−/− Jurkat cells (setting [1]), more than 10000 nM; with FADD−/− Jurkat cells (setting [2]), more than 10000 nM.
With `CC(C)(C(=O)N1CCCC1c1ccc(Cl)cc1)n1ncc2cc(Cl)ccc21` (stereo not shown) [QY-11-9B], the EC50 with L929 cells (setting [3]) came to 3440 nM; with L929 cells (L929, L929 cells (mouse), TNFa) it was 0.00171 nM; in the experiment on FADD−/− Jurkat cells (setting [1]), 3340 nM; in the experiment on FADD−/− Jurkat cells (setting [2]), 2830 nM.
For `CC(C)(C(=O)N1CCCC1c1ccc(Cl)cc1)n1nnc2ccc(Cl)cc21` (stereo not shown) [QY-11-11A], in that order: 0.0772 nM, 0.0188 nM, more than 10000 nM and more than 10000 nM.
On the same counts, the results for `CC(C)(C(=O)N1CCCC1c1ccc(Cl)cc1)n1nnc2cc(Cl)ccc21` (stereo not shown) [QY-11-11B] are 0.12 nM, 0.0192 nM, more than 10000 nM and more than 10000 nM.
On the same counts, the results for `CC(C)(C(=O)N1CCCC1c1ccc(Cl)cc1)n1ccc2cc(Cl)ccc21` (stereo not shown) [QY-11-15B] are more than 10000 nM, more than 10000 nM, more than 10000 nM and more than 10000 nM.
For the compound `CC(C)(C(=O)N1CCCC1c1ccc(Cl)cc1)n1cnc2ccc(Cl)cc21` (stereo not shown) [QY-11-16A], the 50% effective concentration (EC50) in the experiment on L929 cells (setting [3]) is more than 10000 nM; in the experiment with L929 cells (L929, L929 cells (mouse), TNFa), more than 10000 nM; in the experiment on FADD−/− Jurkat cells (setting [1]), more than 10000 nM; with FADD−/− Jurkat cells (setting [2]), more than 10000 nM.
As to `CC(C)(C(=O)N1CCCC1c1ccc(Cl)cc1)n1cnc2cc(Cl)ccc21` (stereo not shown) [QY-11-16B], the EC50 with L929 cells (setting [3]) is more than 10000 nM; with L929 cells (L929, L929 cells (mouse), TNFa), more than 10000 nM; in the experiment with FADD−/− Jurkat cells (setting [1]) it was more than 10000 nM; in the experiment with FADD−/− Jurkat cells (setting [2]) it was more than 10000 nM.
Take `CC(C)(Oc1ccc(C#N)cc1)C(=O)N1CCCC1c1ccc(Cl)cc1` (stereo not shown) [QY-11-36]: the EC50 worked out at 99.5 nM with L929 cells (setting [3]), 885 nM with FADD−/− Jurkat cells (setting [1]) and 137 nM with FADD−/− Jurkat cells (setting [2]).
Consider `CC(C)(Oc1ccc2ncsc2c1)C(=O)N1CCCC1c1ccc(Cl)cc1` (stereo not shown) [QY-11-44], for which the EC50 came to 677 nM in the experiment on L929 cells (setting [3]); 0.0105 nM in the experiment on L929 cells (L929, L929 cells (mouse), TNFa); 1320 nM in the experiment on FADD−/− Jurkat cells (setting [1]); 212 nM in the experiment on FADD−/− Jurkat cells (setting [2]).
For `CC(C)(Oc1ccc(C#N)cc1F)C(=O)N1CCCC1c1ccc(Cl)cc1` (stereo not shown) [QY-11-45], in that order: 108 nM, 0.7 nM, 915 nM and 139 nM.
Consider `COc1cc(C#N)ccc1OC(C)(C)C(=O)N1CCCC1c1ccc(Cl)cc1` (stereo not shown) [QY-12-11], for which the EC50 turned out to be 16.6 nM with L929 cells (setting [3]); 6.06 nM with L929 cells (L929, L929 cells (mouse), TNFa); 178 nM in the experiment with FADD−/− Jurkat cells (setting [1]); 6.72 nM in the experiment with FADD−/− Jurkat cells (setting [2]).
On to `[2H]c1c([2H])c([C@]2([2H])CCCN2C(=O)C(C)(C)Oc2ccc(C#N)cc2OC)c([2H])c([2H])c1C([2H])([2H])[2H]` [QY-12-14], for which the EC50 in the experiment with L929 cells (setting [3]) stood at 7.63 nM; with L929 cells (L929, L929 cells (mouse), TNFa), 3.16 nM; in the experiment with FADD−/− Jurkat cells (setting [1]), 45.3 nM; in the experiment with FADD−/− Jurkat cells (setting [2]) it was 3.65 nM.
On the same counts, the results for `Cn1cnc2ccc(OC(C)(C)C(=O)N3CCCC3c3ccc(Cl)cc3)cc21` (stereo not shown) [QY-12-32] are 1160 nM, 243 nM, 2420 nM and 535 nM.
